Measured values: patent publication US5616606A, “Oligopeptide antiretroviral agents” (priority 1995, dated 1997)
Several values for one entry are separate records, joined by “and”; a condition that tells them apart may be missing. Equal values may be shown once. Read-outs that look alike come from different tables or passages of the source.

Tests used:
[1] = test system: vaccinia virus; format: cell-based; conditions: against vaccinia virus; hydrochloride
[2] = test system: HBV; experiment: inhibition of HBV DNA replication in 2.2.15 cell cultures; format: cell-based; conditions: for INT[…] DNA MONO. / INT[…] DNA RI: 24 hours following the 9th day of treatment; for INT[…] DNA MONO. / INT[…] DNA RI / HBV VIRION DNA DAY 0 / HBV VIRION DNA DAY 6 / HBV VIRION DNA DAY 9: single well
[3] = test system: SC-1 cells; experiment: toxicity TD50 reported with the anti-MLV test; conditions: Table IV
[4] = test system: 2.2.15 cells; experiment: toxicity analysis, neutral red dye uptake in 2.2.15 cells; conditions: triplicate, ± standard deviation
[5] = test system: HBV; conditions: 9 μM; relative to average levels in untreated cells; typically observed (Korba and Milman, 1991); cited from earlier work
[6] = test system: Moloney murine leukemia virus (MLV); experiment: anti-Moloney murine leukemia virus (MLV) plaque test; format: cell-based; conditions: anti-MLV plaque count
[7] = test system: poly(dA-dT); experiment: ethidium displacement assay, poly(dA-dT); conditions: relative to ethidium 9.5 × 10^6 M^-1, average of repeat measurements
[8] = test system: T4 lymphocytes (CEM cell line); experiment: NCI anti-HIV screen, toxicity control in uninfected cells; format: cell-based; conditions: Table X
[9] = target: Moloney Leukemia Virus reverse transcriptase (Moloney murine leukemia virus, UniProt P03355); experiment: inhibition of MLV associated reverse transcriptase activity; conditions: 50% inhibitory dose after 120 min incubation
[10] = test system: HIV-1; conditions: for INFECTED RESPONSE % of Control: Table X

1-Methyl-4-(1-methyl-4-trimethylammoniumacetamidopyrrole-2-carboxamido)pyr role-2-carboxyamidopriopionamidine chloride hydrochloride [Example 3(A)]
minimum inhibitory concentration [1]: 20 µg/mL

Nc1ccn([C@H]2CC[C@@H](CO)O2)c(=O)n1 [DDC, 2,3'-dideoxycytosine, reference compound]
INT[…] DNA MONO. ([2]; 10 μM, listed as 2',3'-ddC): 2.5 pg/μg CELL DNA and 2.0 pg/μg CELL DNA | INT[…] DNA RI ([2]; 10 μM, listed as 2',3'-ddC): 9 pg/μg CELL DNA and 7 pg/μg CELL DNA and 8 pg/μg CELL DNA and 5 pg/μg CELL DNA | HBV VIRION DNA DAY 0 ([2]; 10 μM, listed as 2',3'-ddC): 63 pg/ml CULTURE MEDIUM and 66 pg/ml CULTURE MEDIUM and 78 pg/ml CULTURE MEDIUM and 68 pg/ml CULTURE MEDIUM | HBV VIRION DNA DAY 6 ([2]; 10 μM, listed as 2',3'-ddC): 43 pg/ml CULTURE MEDIUM and 47 pg/ml CULTURE MEDIUM and 54 pg/ml CULTURE MEDIUM and 45 pg/ml CULTURE MEDIUM | HBV VIRION DNA DAY 9 ([2]; 10 μM, listed as 2',3'-ddC): 7 pg/ml CULTURE MEDIUM and 5 pg/ml CULTURE MEDIUM and 6 pg/ml CULTURE MEDIUM and 8 pg/ml CULTURE MEDIUM | INT[…] DNA MONO. ([2]; 50 μM, listed as 2',3'-ddC): 1.2 pg/μg CELL DNA and 1.4 pg/μg CELL DNA and 1.8 pg/μg CELL DNA and 1.7 pg/μg CELL DNA | INT[…] DNA RI ([2]; 50 μM, listed as 2',3'-ddC): 2 pg/μg CELL DNA and 1 pg/μg CELL DNA | HBV VIRION DNA DAY 0 ([2]; 50 μM, listed as 2',3'-ddC): 57 pg/ml CULTURE MEDIUM and 51 pg/ml CULTURE MEDIUM and 58 pg/ml CULTURE MEDIUM and 59 pg/ml CULTURE MEDIUM | HBV VIRION DNA DAY 6 ([2]; 50 μM, listed as 2',3'-ddC): 26 pg/ml CULTURE MEDIUM and 28 pg/ml CULTURE MEDIUM and 30 pg/ml CULTURE MEDIUM and 20 pg/ml CULTURE MEDIUM | HBV VIRION DNA DAY 9 ([2]; 50 μM, zero = undetectable, cutoff 0.1 pg/ml): 0 pg/ml CULTURE MEDIUM | effect on HBV replication (in words) ([2]; tested at 50 and 10 μM, compared with 2',3'-ddC): significant depressions of HBV DNA replication | Toxicity, TD50 [3]: > 100.00 ug/mL^-1 | NEUTRAL RED DYE UPTAKE ([4]; 10 μg/ml): 99 ± 1 % OF CONTROL | NEUTRAL RED DYE UPTAKE ([4]; 30 μg/ml): 100 ± 1 % OF CONTROL | NEUTRAL RED DYE UPTAKE ([4]; 100 μg/ml): 89 ± 3 % OF CONTROL | NEUTRAL RED DYE UPTAKE ([4]; 300 μg/ml): 17 ± 2 % OF CONTROL | depression of HBV RI [5]: 90% | Activity, MIC50 [6]: 0.74 µg/mL

Cl.Cl.Cn1cc(NC(=O)c2cc(NC(=O)[C@@H]3CC[C@H]3C(=O)Nc3cc(C(=O)Nc4cc(C(=O)NCCC(=N)N)n(C)c4)n(C)c3)cn2C)cc1C(=O)NCCC(=N)N (relative stereo) [Compound 25b, N,N'-di[1-methyl-2-[1-methyl-2-carboxamido(3-propionamidine)-4-pyrrole]-4-pyrrolyl] trans 1,2-cyclobutaneamide dihydrochloride]
Kapp [7]: 5.6e+07 M⁻¹ | […] % of Control ([8]; dose 2.92 × 10^-4 Molar): 0.54 % of Control | […] % of Control ([8]; dose 2.93 × 10^-5 Molar): 174.62 % of Control | […] % of Control ([8]; dose 2.93 × 10^-6 Molar): 116.36 % of Control | […] % of Control ([8]; dose 2.94 × 10^-7 Molar): 90.95 % of Control | […] % of Control ([8]; dose 9.25 × 10^-4 Molar): 8.29 % of Control | […] % of Control ([8]; dose 9.27 × 10^-5 Molar): 101.95 % of Control | […] % of Control ([8]; dose 9.29 × 10^-7 Molar): 102.41 % of Control | […] % of Control ([8]; dose 9.38 × 10^-6 Molar): 145.18 % of Control | ID50 (average ± SD) [9]: 21.8 ± 9.2 µg/mL | EC50 ([10]; Table XI): 420 nM | INFECTED RESPONSE % of Control ([10]; dose 2.92 × 10^-4 Molar): 0.04 % of Control | INFECTED RESPONSE % of Control ([10]; dose 2.93 × 10^-5 Molar): 110.05 % of Control | INFECTED RESPONSE % of Control ([10]; dose 2.93 × 10^-6 Molar): 77.00 % of Control | INFECTED RESPONSE % of Control ([10]; dose 2.94 × 10^-7 Molar): 42.92 % of Control | INFECTED RESPONSE % of Control ([10]; dose 9.25 × 10^-4 Molar): 9.72 % of Control | INFECTED RESPONSE % of Control ([10]; dose 9.27 × 10^-5 Molar): 90.52 % of Control | INFECTED RESPONSE % of Control ([10]; dose 9.29 × 10^-7 Molar): 59.07 % of Control | INFECTED RESPONSE % of Control ([10]; dose 9.38 × 10^-6 Molar): 80.26 % of Control

1-Methyl-4-(1-methyl-4-trimethylammoniumacetamidopyrrole-2-carboxamido)pyr role-2-carboxyamidopriopionamidine chloride hydrochloride [3(B)]
minimum inhibitory concentration [1]: 300 µg/mL
